From ChEMBL document CHEMBL1201862, “PubChem BioAssay data set” (2004)
Calls of active or inactive are those of the source.

How the values were obtained:
[1] = biological target: Signal transducer and activator of transcription 3 (Homo sapiens, UniProt P40763); experiment: STAT3 inhibitors, late-stage profile, late-stage follow-up, cell-based, STAT1 panel, qPCR, cytotoxicity, panel member STAT3 Inhibition (AID 2078)
[2] = biological target: Signal transducer and activator of transcription 1-alpha/beta (Homo sapiens, UniProt P42224); experiment: STAT3 inhibitors, late-stage profile, late-stage follow-up, cell-based, STAT1 panel, qPCR, cytotoxicity, panel member STAT1 Inhibition (AID 2078)
[3] = biological target: T1, Orexin/Hypocretin receptor type 1 (Homo sapiens, UniProt O43613); experiment: (§1) Fluorescence-based cell-based high throughput dose response assay for antagonists of the orexin 1 receptor (OX1R; HCRTR1). [Related pubchem assays (depositor defined):AID434989, AID435008, AID463079, AID485270, AID492963, AID492964, AID492965, AID493232, AID504717, AID504718]; type: functional
[4] = test system: CHO-K1; experiment: (§2) Counterscreen for antagonists of the orexin 1 receptor (OX1R; HCRTR1): Homogeneous time resolved fluorescence (HTRF)-based cell-based dose response assay to identify antagonists of the parental CHO-K1 cell line. [Related pubchem assays (depositor defined):AID434989, AID435008, AID463079, AID485270, AID492963, AID492964, AID492965, AID493232, AID504699, AID504701]; type: functional; settings: Cricetulus griseus
[5] = biological target: T2, Replicative DNA helicase DnaB (Mycobacterium tuberculosis, UniProt P9WMR3); experiment: DnaB intein splicing inhibitors, dose response, biochemical, cell-free fluorescence (AID 449749); type: functional
T2 sequence (P9WMR3 whole entry): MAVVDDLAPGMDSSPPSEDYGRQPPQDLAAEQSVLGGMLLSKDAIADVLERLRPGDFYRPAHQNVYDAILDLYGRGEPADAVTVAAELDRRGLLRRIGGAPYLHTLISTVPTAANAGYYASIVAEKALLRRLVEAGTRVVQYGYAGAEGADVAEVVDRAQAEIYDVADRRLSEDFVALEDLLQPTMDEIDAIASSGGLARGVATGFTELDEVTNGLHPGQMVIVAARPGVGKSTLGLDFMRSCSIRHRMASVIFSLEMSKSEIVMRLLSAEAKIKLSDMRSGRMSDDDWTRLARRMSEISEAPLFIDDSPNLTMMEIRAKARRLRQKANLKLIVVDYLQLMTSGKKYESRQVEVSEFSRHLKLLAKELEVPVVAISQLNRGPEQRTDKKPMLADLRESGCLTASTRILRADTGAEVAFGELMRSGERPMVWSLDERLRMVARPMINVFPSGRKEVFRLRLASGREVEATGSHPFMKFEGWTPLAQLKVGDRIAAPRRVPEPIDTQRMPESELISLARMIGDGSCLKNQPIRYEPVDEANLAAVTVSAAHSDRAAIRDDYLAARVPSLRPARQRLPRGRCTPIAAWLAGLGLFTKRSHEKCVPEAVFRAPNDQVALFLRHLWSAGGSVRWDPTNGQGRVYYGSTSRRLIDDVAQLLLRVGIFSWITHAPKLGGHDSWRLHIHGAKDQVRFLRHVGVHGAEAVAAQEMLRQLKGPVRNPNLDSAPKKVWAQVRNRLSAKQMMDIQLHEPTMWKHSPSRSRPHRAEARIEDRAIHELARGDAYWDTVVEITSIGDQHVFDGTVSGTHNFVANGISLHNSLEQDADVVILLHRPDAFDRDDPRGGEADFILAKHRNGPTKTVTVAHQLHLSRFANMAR

[6] = biological target: T3, Protein RecA (Mycobacterium tuberculosis, UniProt P9WHJ3); experiment: Fluorescence Cell-Free Homogeneous Dose Retest to Identify Inhibitors of RecA-Intein Splicing Activity. [Related pubchem assays (depositor defined):AID2097, AID2223, AID489010, AID492950]; type: functional
T3 sequence (P9WHJ3 whole entry): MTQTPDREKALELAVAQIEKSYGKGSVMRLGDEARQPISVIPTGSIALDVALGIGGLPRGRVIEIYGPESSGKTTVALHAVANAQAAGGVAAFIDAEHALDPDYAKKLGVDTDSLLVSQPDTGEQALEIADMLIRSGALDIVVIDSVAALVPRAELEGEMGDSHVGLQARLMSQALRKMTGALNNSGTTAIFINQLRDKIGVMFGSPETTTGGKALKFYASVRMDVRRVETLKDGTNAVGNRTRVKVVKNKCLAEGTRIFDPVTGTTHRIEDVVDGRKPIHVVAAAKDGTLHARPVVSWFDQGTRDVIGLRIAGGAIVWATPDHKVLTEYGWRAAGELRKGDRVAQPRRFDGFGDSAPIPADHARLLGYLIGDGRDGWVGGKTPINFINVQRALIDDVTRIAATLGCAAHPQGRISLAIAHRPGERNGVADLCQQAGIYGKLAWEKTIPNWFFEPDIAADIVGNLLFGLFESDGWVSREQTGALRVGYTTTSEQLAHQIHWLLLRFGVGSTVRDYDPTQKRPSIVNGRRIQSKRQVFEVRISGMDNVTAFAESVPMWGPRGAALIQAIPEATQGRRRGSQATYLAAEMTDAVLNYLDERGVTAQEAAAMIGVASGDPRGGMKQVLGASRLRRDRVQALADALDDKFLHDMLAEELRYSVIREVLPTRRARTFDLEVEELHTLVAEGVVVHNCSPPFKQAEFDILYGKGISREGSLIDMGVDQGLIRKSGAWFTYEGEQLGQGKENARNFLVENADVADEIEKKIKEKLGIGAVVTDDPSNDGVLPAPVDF

[7] = as §2, with “Fluorescence-based” for “Homogeneous time resolved fluorescence (HTRF)-based”, “cell-based high throughput” for “cell-based”, “CHO” for “CHO-K1”; type: functional
[8] = biological target: T1, Orexin/Hypocretin receptor type 1; experiment: as §1, with “Homogeneous Time Resolved Fluorescence (HTRF)-based” for “Fluorescence-based”; type: functional
[9] = biological target: T4, Bcl-2-related protein A1 (Mus musculus, UniProt Q07440); type: functional;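 further: confirmatory dose–response counterscreen on Bfl-1, used to check hits from a UBC13 polyubiquitin inhibitor campaign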
T4 sequence (Q07440 whole entry): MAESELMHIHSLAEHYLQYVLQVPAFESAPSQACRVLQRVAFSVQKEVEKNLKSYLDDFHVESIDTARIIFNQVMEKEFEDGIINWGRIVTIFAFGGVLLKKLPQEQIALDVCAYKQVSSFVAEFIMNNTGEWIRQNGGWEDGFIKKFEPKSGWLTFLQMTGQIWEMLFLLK

[10] = biological target: T5, Ubiquitin-conjugating enzyme E2 N (Homo sapiens, UniProt P61088); type: functional
T5 sequence (P61088 whole entry): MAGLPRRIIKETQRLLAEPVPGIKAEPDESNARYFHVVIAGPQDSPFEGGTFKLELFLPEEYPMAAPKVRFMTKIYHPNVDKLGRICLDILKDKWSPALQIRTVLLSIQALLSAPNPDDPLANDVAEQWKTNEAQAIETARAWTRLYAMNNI

[11] = biological target: T5, Ubiquitin-conjugating enzyme E2 N; type: functional; remark: listed apart in the source

T1 sequence (O43613 whole entry): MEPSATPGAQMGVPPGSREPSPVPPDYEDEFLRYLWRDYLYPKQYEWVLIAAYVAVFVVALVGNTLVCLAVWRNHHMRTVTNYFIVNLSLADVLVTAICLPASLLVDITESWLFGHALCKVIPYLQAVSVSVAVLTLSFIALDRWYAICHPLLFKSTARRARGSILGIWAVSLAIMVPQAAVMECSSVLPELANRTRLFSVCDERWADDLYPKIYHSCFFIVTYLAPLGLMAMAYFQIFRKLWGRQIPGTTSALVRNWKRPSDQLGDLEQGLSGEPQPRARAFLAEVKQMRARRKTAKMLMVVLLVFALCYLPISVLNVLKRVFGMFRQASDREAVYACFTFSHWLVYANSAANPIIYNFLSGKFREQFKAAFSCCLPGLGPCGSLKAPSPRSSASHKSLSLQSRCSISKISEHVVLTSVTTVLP
Sequence of Signal transducer and activator of transcription 1-alpha/beta (P42224 whole entry): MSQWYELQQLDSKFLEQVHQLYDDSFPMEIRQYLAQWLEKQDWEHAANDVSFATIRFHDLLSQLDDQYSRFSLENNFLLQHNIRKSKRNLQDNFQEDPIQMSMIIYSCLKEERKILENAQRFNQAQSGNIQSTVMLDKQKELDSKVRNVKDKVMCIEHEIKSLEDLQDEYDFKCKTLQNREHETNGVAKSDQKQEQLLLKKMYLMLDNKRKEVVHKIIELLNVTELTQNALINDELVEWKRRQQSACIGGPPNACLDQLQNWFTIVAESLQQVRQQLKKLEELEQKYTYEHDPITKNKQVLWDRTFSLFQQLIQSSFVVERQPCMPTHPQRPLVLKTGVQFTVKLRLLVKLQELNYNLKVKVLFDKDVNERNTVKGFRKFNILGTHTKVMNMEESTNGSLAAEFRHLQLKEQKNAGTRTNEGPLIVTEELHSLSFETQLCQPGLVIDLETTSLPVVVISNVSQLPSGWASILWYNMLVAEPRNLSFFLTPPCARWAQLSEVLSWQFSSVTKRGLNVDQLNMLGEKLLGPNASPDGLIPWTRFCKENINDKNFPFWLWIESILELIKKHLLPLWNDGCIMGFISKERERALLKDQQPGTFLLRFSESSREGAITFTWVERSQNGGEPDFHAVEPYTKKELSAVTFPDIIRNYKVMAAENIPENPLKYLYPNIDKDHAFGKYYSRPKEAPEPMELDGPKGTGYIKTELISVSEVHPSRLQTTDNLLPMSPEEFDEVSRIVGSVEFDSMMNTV
Sequence of Signal transducer and activator of transcription 3 (P40763 whole entry): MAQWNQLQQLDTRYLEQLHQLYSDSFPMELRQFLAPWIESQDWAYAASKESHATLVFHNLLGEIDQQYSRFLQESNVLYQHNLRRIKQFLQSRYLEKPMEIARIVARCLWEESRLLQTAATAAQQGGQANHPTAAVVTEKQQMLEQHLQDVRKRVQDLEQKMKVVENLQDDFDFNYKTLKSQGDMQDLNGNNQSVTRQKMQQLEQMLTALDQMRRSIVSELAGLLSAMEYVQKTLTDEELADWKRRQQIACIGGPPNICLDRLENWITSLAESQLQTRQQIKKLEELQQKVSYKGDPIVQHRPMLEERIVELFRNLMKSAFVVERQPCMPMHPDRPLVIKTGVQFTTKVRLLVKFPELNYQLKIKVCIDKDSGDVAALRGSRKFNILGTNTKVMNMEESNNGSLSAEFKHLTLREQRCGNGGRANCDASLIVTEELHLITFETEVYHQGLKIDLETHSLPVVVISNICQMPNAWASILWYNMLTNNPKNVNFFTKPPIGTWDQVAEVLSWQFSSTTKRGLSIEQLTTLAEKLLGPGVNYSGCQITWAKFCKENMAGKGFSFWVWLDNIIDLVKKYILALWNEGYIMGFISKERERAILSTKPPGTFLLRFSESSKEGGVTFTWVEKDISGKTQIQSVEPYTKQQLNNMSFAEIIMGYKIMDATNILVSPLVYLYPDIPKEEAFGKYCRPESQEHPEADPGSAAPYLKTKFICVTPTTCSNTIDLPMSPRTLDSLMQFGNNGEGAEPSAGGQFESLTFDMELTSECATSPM

Compound: O=C(c1ccc(F)cc1)C1CCN(c2ncnc3sccc23)CC1
- IC50 [1]: 1.68 µM (active)
- IC50 [2]: > 55.7 µM (inactive)

Compound: COc1ccc(S(=O)(=O)Nc2c(O)ccc3ccccc23)cc1OC
- IC50 [3]: > 16.6 µM (inactive)
- IC50 [4]: 27 µM (inactive)
- AC50 [5]: 5.46 µM (active)
- EC50 [6]: 2.85 µM (active)
- IC50 [7]: > 49.8 µM (inactive)
- IC50 [8]: 3.15 µM (active)

Compound: CCOC(=O)c1nn(-c2ccccc2)c(=O)cc1OCC(=O)Nc1ccccc1OCC
- IC50 [9]: > 20 µM (inactive)
- IC50 [10]: 14.9 µM (active)
- IC50 [11]: > 20 µM (inactive)
